From patent publication US5328840A, “Method for preparing targeted carrier erythrocytes” (The Research Foundation of the State University of New York, priority 1991, dated 1994) come the findings set out here.

In series [1] the test system is activated platelets. Briefly: Platelet-thrombo-erythrocyte co-aggregation assay (microtiter). In kind it is cell-based. How it is done: To assess the ability of thrombo-erythrocytes to enter into developing platelet aggregates, a microtiter assay was developed. Platelet-rich plasma (PRP) was prepared from blood anticoagulated with 0.01 volume 40% sodium citrate and adjusted to a platelet count of 3.5×10^8 /ml with platelet-poor plasma. Aliquots (50 or 100 μl) of the PRP were added to microtiter wells and then 5 or 10 μl of ADP (100 μM stock solution) was added to selected wells, followed by the addition of 5 or 10 μl of thrombo-erythrocytes (10% hematocrit in buffer A). The microtiter plate was then rotated at 270 rpm at 22° C. for variable periods of time between 0.5 and 20 min and the extent of platelet-thrombo-erythrocytecoaggregation was assessed visually on a scale from 0-4+ with the aid of a magnifying mirror. To assess the specificity of the reaction, in some experiments the PRP was preincubated with 10 mM EDTA, 300 μg/ml of the peptide RGDF, or 20 μg/ml of an antibody directed against both the GPIIb/IIIa receptor and the αv β3 vitronectin receptor that blocks fibrinogen binding to activated platelets (7E3) (Coller, 1985, J. Clin. Invest. 76:101-108; Coller et al., 1991, Blood 77:75-83). Blood smears were made from the samples in some experiments and stained with a standard Wright stain (Hemastain, Geometric Data, Wayne, Pa.).

Series [2] concerns platelets. Briefly: Agglutination assay with peptide-coated beads. Format: cell-based. On the procedure: Biol. 109:863) was a gift of Dr. Kenneth Yamada, National Institutes of Health, Bethesda, Md. The platelets were incubated with the antibody concentrations indicated for 30-60 min before the addition of the beads. In the case of PAC-1, which binds only to activated platelets (Shattil et al. 1985, J. Biol. Chem. 260:1107), the platelets were activated with ADP (6.7 μM final concentration) without stirring for 5 min before adding the antibody.
To 70 μl of PRP or GFP at a count of 3×10^11 platelets/l in a 96 well round bottom polystyrene microtiter plate, 5 μl of a well mixed bead suspension (0.22 mg beads) was added and the plate was rotated at 260 rpm (Orbit shaker, Lab Line Instruments, Melrose Park, Ill.) for various times between 0 and 30 min (0.5, 1, 2, 4, 6, 8, 10, 12, 15, 20, 25, 30 min). […] Platelet counts in the supernatant plasma or buffer were measured by removing 5 μl from the supernatant after allowing the bead agglutinates to settle for 3 min. […] In some experiments, platelets were activated with 6.7 μM ADP 30 sec prior to the addition of the beads; in other experiments the platelets were preincubated with 0.14 μM PGE1 (Sigma, St. Louis) for 30 min.

Series [3] is described as follows: Solubility of (G)n-RGDF peptides in buffers.
For series [4] the following is noted: for solubility in 0.1% trifluoroacetic acid: pH 2.5; for solubility in the acetate buffer: pH 6.5.
Series [5] relates to platelets. Briefly: Release of 14C-serotonin from platelets. Format: cell-based. To be noted: acetylsalicylic acid 50 μM; PGE1 0.14 μM; 8 min. How it is done: Citrated PRP (3×10^11 /l) was incubated with ^14 C-5-serotonin (10 μCi/ml stock solution, 20-25 nCi/ml final concentration, New England Nuclear, Boston, Mass.) for 30 min at 22° C. with gentle stirring (~100 rpm) using a teflon coated stir bar. In order to maintain the PRP pH constant at ~7.60, the PRP was overlayed with 5% CO2, 95% air just before the incubation began. Serotonin uptake was terminated by adding 5 μM imipramine (Sigma) and stirring was continued for another 5 min. Total uptake under these conditions was 70-80% of the added serotonin. The agglutination assay was performed in quadruplicate in the same way as described above except that after 8 min of shaking, 70 μl of cold 2% paraformaldehyde in PBS, pH 7.4 was added to the wells and the microtiter plate was centrifuged at 1000×g for 5 min at 22° C. The top 50 μl of the supernatant (total volume in each well was 145 μl) was added to scintillation fluid and counted in a scintillation spectrometer. In some experiments the PRP was preincubated with acetylsalicylic acid (50 μM) or PGE1 (0.14 μM) during the serotonin uptake.

The subject of series [6] is platelets adherent to collagen. Briefly: Binding of thrombo-erythrocytes to platelets adherent to collagen. The settings on record: 1 hour, 22° C., 2 mM MgCl2. Format: cell-based. How it is done:
The first stage of the assay, involving the adhesion of platelets to purified type 1 rat skin collagen, was performed as described previously, but without radiolabeling the platelets (Coller et al., 1989, Blood 74:182-192). In brief, a sample of gel-filtered platelets (100 μl; 5.5×10^8 /ml) in the presence of 2 mM MgCl2 was added to microtiter plate wells precoated with collagen and the platelets were allowed to adhere for 1 hour at 22° C. The wells were then emptied and washed×3 with buffer (0.15M NaCl, 0.01M Tris/HCl, 0.5% bovine serum albumin, 5 mM glucose, pH 7.4). Control erythrocytes or thrombo-erythrocytes (50 μl; 10% hematocrit) were then added to the wells in the same buffer, which was now supplemented with 2 mM MgCl2. After 60 min, the wells were emptied and washed×3 as above. The wells were then visually inspected at 400× magnification with the aid of a microscope with Nomarski optics. The effect of 20 μg/ml of an antibody to GPIIb/IIIa that blocks fibrinogen binding and platelet aggregation (10E5) (Coller et al., 1983, J. Clin. Invest. 72:325-338) and 400 μg/ml of the peptide RGDF on thrombo-erythrocyte adhesion to platelets was tested by adding these agents to the thrombo-erythrocytes immediately before the thrombo-erythrocytes were added to the microtiter wells.

The subject of series [7] is gel-filtered platelets. Briefly: Co-aggregation of thrombo-erythrocytes with gel-filtered platelets in the aggregometer. Format: cell-based. On the procedure: To obtain more quantitative data on the co-aggregation of thrombo-erythrocytes with platelets, the assay was adapted to the aggregometer. PRP was prepared from whole blood anticoagulated with ACD-A (8.5:1.5) and gel-filtered over a column of Sepharose 2B (Pharmacia) using a modified Tyrodes buffer (140 mM NaCl, 3 mM KCl, 12 mM NaHCO3, 0.4 mM NaH2 PO4, 10 mM HEPES, 2 mM MgCl2, 0.2% bovine serum albumin, 5 mM glucose, pH 7.4). Samples consisted of 450 μl of gel-filtered platelets+20 μl of thrombo-erythrocytes (10% hematocrit) or control erythrocytes (i.e., erythrocytes incubated with peptide but no crosslinker). Maximal transmission was set with 450 μl of buffer+20 μl of control erythrocytes. Platelets were activated with ADP (4.3 μM final concentration) or epinephrine (10 μM).

The test system of series [8] is erythrocytes. The experiment in a line: Assessment of hemolysis (leucomalachite green). The settings on record: mean SD; n=6. On the procedure: Hemolysis of erythrocytes during thrombo-erythrocyte preparation was assayed by the reaction of any free hemoglobin with leucomalachite green (Kodak; 0.1% p,p'-benzylidenebis-(N,N-dimethylaniline) in 3.3 M acetic acid). The resulting compound was detected by absorbance at 617 nm, a wavelength that is not interfered with by the mal-sac-HNSA dianion. Standards were prepared by lysing known amounts of erythrocytes in deionized water. The assay consisted of 10 μl of sample (the supernatant of the reaction mixture after centrifuging to remove intact erythrocytes), 1 ml of leucomalachite green, and 1 ml of 0.1% […]. After 10 min the absorbance of each sample was read at 617 nm.

“Also recorded” adds a separate entry of the source. Where two headings read alike, the source gives them in different places. Where a SMILES comes first, the peptide text is derived from it.

For the molecule `O=C(O)CN(CCN(CC(=O)O)CC(=O)O)CC(=O)O` [EDTA, reference compound], in series [1] (ADP-activated PRP preincubated with 10 mM EDTA, 300 μg/ml RGDF or antibody 7E3), the “effect on platelet-thrombo-erythrocyte co-aggregation” value is “inhibited”. For the same molecule, the “bead agglutination in the presence of the agent” value in series [2] is reported as “no agglutination at all”.

As for `N=C(N)NCCC[C@H](NC(=O)CNC(=O)CNC(=O)CNC(=O)CNC(=O)CNC(=O)CNC(=O)CNC(=O)CNC(=O)CNC(=O)CNC(=O)CN)C(=O)NCC(=O)N[C@@H](CC(=O)O)C(=O)N[C@@H](Cc1ccccc1)C(N)=O` [G11 -RGDF], in series [3] (0.05M Na acetate buffer, pH 6.5), the “solubility in the acetate buffer” value is on record as “only partially soluble”. Besides, the “solubility in 0.1% trifluoroacetic acid” value in series [3] (pH 2.5, 22° C. or 37° C.) is recorded as “fully soluble”.

For `N=C(N)NCCC[C@H](NC(=O)CNC(=O)CNC(=O)CNC(=O)CNC(=O)CNC(=O)CNC(=O)CNC(=O)CNC(=O)CNC(=O)CNC(=O)CNC(=O)CNC(=O)CN)C(=O)NCC(=O)N[C@@H](CC(=O)O)C(=O)N[C@@H](Cc1ccccc1)C(N)=O` [G13 -RGDF], in series [4], the “solubility in 0.1% trifluoroacetic acid” value is listed as “fully soluble” and the “solubility in the acetate buffer” value is “only partially soluble”.

In the case of `N=C(N)NCCC[C@H](NC(=O)CNC(=O)CNC(=O)CNC(=O)CNC(=O)CNC(=O)CNC(=O)CNC(=O)CNC(=O)CNC(=O)CNC(=O)CNC(=O)CNC(=O)CNC(=O)CNC(=O)CN)C(=O)NCC(=O)N[C@@H](CC(=O)O)C(=O)N[C@@H](Cc1ccccc1)C(N)=O` [G15 -RGDF] (H-GGGGGGGGGGGGGGGRGDF-NH2), in series [4], the “solubility in 0.1% trifluoroacetic acid” value is given as “fully soluble” and the “solubility in the acetate buffer” value is reported as “only partially soluble”.

As to `N=C(N)NCCC[C@H](NC(=O)CNC(=O)CNC(=O)CNC(=O)CNC(=O)CNC(=O)CNC(=O)CNC(=O)CNC(=O)CNC(=O)CNC(=O)CNC(=O)CNC(=O)CNC(=O)CNC(=O)CNC(=O)CNC(=O)CN)C(=O)NCC(=O)N[C@@H](CC(=O)O)C(=O)N[C@@H](Cc1ccccc1)C(N)=O` [G17 -RGDF] (H-GGGGGGGGGGGGGGGGGRGDF-NH2), in series [4], the “solubility in 0.1% trifluoroacetic acid” value was “fully soluble” and the “solubility in the acetate buffer” value was “only partially soluble”.

`N=C(N)NCCC[C@H](NC(=O)CNC(=O)CNC(=O)CNC(=O)CNC(=O)CNC(=O)CNC(=O)CNC(=O)CNC(=O)CNC(=O)CNC(=O)CNC(=O)CNC(=O)CNC(=O)CNC(=O)CNC(=O)CNC(=O)CNC(=O)CNC(=O)CN)C(=O)NCC(=O)N[C@@H](CC(=O)O)C(=O)N[C@@H](Cc1ccccc1)C(N)=O` [G19 -RGDF] (H-GGGGGGGGGGGGGGGGGGGRGDF-NH2): in series [4], the “solubility in 0.1% trifluoroacetic acid” value was “fully soluble” and the “solubility in the acetate buffer” value is given as “only partially soluble”.

Turning to `CCCCC[C@H](O)/C=C/[C@H]1[C@H](O)CC(=O)[C@@H]1CCCCCCC(=O)O` [PGE1], the “effect of preincubation of platelets on serotonin release induced by (G)n -RGDF beads” value in series [5] was “abolished release”.

As to `CC(=O)Oc1ccccc1C(=O)O` [acetylsalicylic acid], the “effect of preincubation of platelets on serotonin release induced by (G)n -RGDF beads” value in series [5] is recorded as “did not change this pattern”.

Turning to PAC-1, in series [2], the “inhibition of agglutination of G1 -RGDF and G3 -RGDF beads” value was “effectively inhibited”. The “Inhibition of G9 -RGDF Bead Agglutination (%) +ADP” value in series [2] (antibody 60 μg/ml, 30 min) was found to be 8%. Also, the “inhibition of the interaction of platelets in PRP with G1 -RGDF, G3 -RGDF, and G5 -RGDF beads” value in series [2] (even with ADP activation) is greater than 90%.

Consider “Y-HHLGGAKQAGDV (N-terminal added tyrosine) [Fibrinogen Dodecapeptide (+Tyr), fibrinogen γ-chain dodecapeptide (amino acids 400-411) with an added amino-terminal tyrosine]”, for which the “Inhibition of G9 -RGDF Bead Agglutination (%)” value was determined as 13% in series [2] (peptide 1.8 × 10^-3 M), 67% in series [2] (peptide 3.6 × 10^-3 M) and 0% in series [2] (peptide ≤4.5 × 10^-4 M).

As to “thrombo-erythrocytes: erythrocytes covalently conjugated through Mal-Sac-HNSA to the peptide acetyl-Cys-Gly-Gly-Arg-Gly-Asp-Phe-amide (Ac-CGGRGDF-NH2) (also: conjugated to erythrocytes via Mal-Sac-HNSA)”, the “binding to platelets adherent to collagen” value in series [6] is given as “formed a dense lawn on top of the platelet lawn; also recorded: bound extensively to the adherent platelets”. The “interaction with platelets (aggregometer)” value in series [7] (ADP-activated gel-filtered platelets, 4.3 μM ADP) is reported as “interact with ADP-activated platelets”; in series [7] (unactivated gel-filtered platelets, stirring, 37° C.) it was “did not interact with unactivated platelets”. Also, the platelet-thrombo-erythrocyte co-aggregation entry in series [1] (PRP with ADP, 120 min crosslinking, more than 20 experiments) was “positive response”. For the same molecule, in series [1] (no agonist added), the interaction with platelets result is on record as “did not interact with platelets”. Moreover, the “erythrocyte hemolysis in supernatant fluid after the thrombo-erythrocyte reaction” value in series [8] amounted to 0.40±0.09%.
